Data published in patent publication US20120276560A1, “BIOMARKERS FOR ASSESSING SIALIC ACID DEFICIENCIES” (priority 2010, published 2012).

What was measured:
[1] = system: Gne^−/− hGNED176V-Tg mice; conditions: administration in water; Malicdan et al. 2009; cited from earlier work
PSA-NCAM [2] = test: Western blot of serum PSA-NCAM (RNL-1 antibody) in HIBM patient on ManNAc; type: in vivo, human; conditions: serum of ManNAc self-treated HIBM patient (2 years), FIG. 3 lane 7
Experimental: (§1) Serum samples from normal individuals, HIBM patients before treatment, patients suffering from myopathy but not HIBM, and a HIBM patient on ManNAc therapy for 2 years were purified to reduce serum proteins. The samples were subjected to SDS PAGE and stained with a monoclonal antibody to NCAM (RNL-1, SantaCruz Biotech, Inc., CA) capable of detecting sialylated and unsialylated forms of NCAM (FIGS. 2 and 3). As a control, serum samples from healthy individuals were prepared as described above and treated with sialidase to remove sialic acid.
(§2) For Western blotting, serum protein was extracted from 50 ul serum samples using Mem-PER® Eukaryotic Membrane Protein Extraction Reagent Kit (Thermo Scientific), then the hydrophilic (top) layer was cleaned and purified by SDS-PAGE Sample Prep Kit (Thermo Scientific). Final protein concentration was measured by BradfordUltra (Expedeon), and […] protein (15 uL) loaded per lane for electrophoresis separation. […] Primary (RNL-1, SantaCruz Biotech, Inc., CA) and secondary antibodies were applied, and detected using horseradish peroxidase (HRP) chemi-luminescence substrate (FIG. 3). […]
(§3) For desialylated control sample, serum protein from healthy non-myopathic individuals was treated with Vibrio cholerae neuroaminidase (Sigma) (FIG. 3, lane 8). HIBM patients who were routinely ingesting N-Acetylmannosamine (ManNAc) were analyzed as well (FIG. 3, lane 7).

[3] = system: mice homozygous for the M712T Gne mutation; conditions: ManNAc in water to mutant mice; Galeano et al. 2007; cited from earlier work
PSA-NCAM [4] = test: Neuraminidase digestion of normal human serum, Western blot with 123C3 antibody; type: biochemical; conditions: 37° C. 4 hours, 1 m unit enzyme per 3 μg protein, FIG. 4A lane 2, estimated
Experimental: Experiments were performed to determine whether PSA-NCAM can be detected in human serum using well-defined mouse monoclonal antibodies raised against human PSA-NCAM (123C3). Human serum was purified by Aurum serum protein kit (Bio-Rad) to remove albumin and IgG which can interfere with SDS-PAGE analysis. Raw serum was diluted 4 times with protein binding buffer (supplied in the kit) and applied to the column. The albumin/IgG depleted serum was eluted by centrifugation at 10,000 g for 20 seconds and protein concentration was determined by modified Lowry assay (Bio-Rad DC protein assay).
Purified serum was incubated in neuraminidase from Vibrio cholera (Sigma) at 37° C. for 4 hours in order to cleave sialic acid (SA) from serum polysialic acid-glycoproteins, including PSA-NCAM. Digestion was carried out at a concentration of 1 m unit enzyme per 3 μg of protein in 20 mM Tris buffer, pH 5.8. A negative control was included in the experiment under the same condition but without adding the neuraminidase. At the end of incubation, the mixture was cleaned up with micro bio-spin P30 columns (BioRad).
Proteins were analyzed on 10% denaturing Tris-glycine SDS-PAGE gel (Invitrogen) under reducing condition. […]

PSA-NCAM [5] = test: Sialidase treatment of normal human serum, Western blot with RNL-1 antibody; type: biochemical; conditions: normal human serum treated with sialidase
Experimental: as §1, §2, §3

PSA-NCAM [6] = test: Neuraminidase digestion of normal human serum, Western blot with C-20 polyclonal antibody; type: biochemical; conditions: 37° C. 4 hours, 0.35 m unit enzyme per μl serum, FIG. 5 lane 5
Experimental: Experiments were performed to investigate the pattern of serum PSA-NCAM sialylation between normal controls and HIBM patients using a polyclonal antibody raised against human PSA-NCAM. Human serum was purified by a two-steps protocol to enrich PSA-NCAM. Raw sera from both normal human and HIBM patient were extracted by Mem-PER® membrane protein extraction kit (Thermo Scientific) according to the manufacturer's protocol. Serum was first mixed with a detergent and then a second detergent was added to solubilize membrane proteins. After centrifugation at 10,000 g for 3 minutes, the mixture was incubated at 37° C. to separate hydrophobic proteins from hydrophilic proteins through phase partitioning. The top hydrophilic layer was then further purified by SDS-PAGE sample prep kit (Thermo Scientific) to remove detergents and other contaminants that interfere with SDS-PAGE analysis.
Purified serum was incubated with Vibrio cholera neuraminidase (Sigma) at 37° C. for 4 hours in order to cleave sialic acid (SA) from serum polysialic acid-glycoproteins, including PSA-NCAM. Digestion was carried out at a concentration of 0.35 m unit enzyme per μl of serum. […]
Proteins were analyzed on a 10% Mini-Protean precast gel (BioRad) under reducing condition with 5% 2-mercaptoethanol. Final protein concentration was measured by Bradford Ultra (Expedeon). […]

## CC(=O)N[C@@H]1C(O)O[C@H](CO)[C@@H](O)[C@@H]1O (some centres unmarked) [ManNAc, N-acetylmannosamine]
[1]
  muscle atrophy and weakness: reduced or prevented
PSA-NCAM [2]
  PSA-NCAM signal at ˜150 kD band on Western blot: improved signal
[3]
  renal histology (podocyte foot processes): improved renal histology
  sialylation of brain PSA-NCAM: increased sialylation of brain PSA-NCAM
  sialylation of renal podocalyxin: increased sialylation of renal podocalyxin
  survival: improved survival

## CC(=O)N[C@H]1[C@H]([C@H](O)[C@H](O)CO)OC(O)(C(=O)O)C[C@@H]1O (some centres unmarked) [sialic acid, 5-N-acetylneuraminic acid]
[1]
  muscle atrophy and weakness: reduced or prevented

## neuraminidase: neuraminidase from Vibrio cholera (Sigma), used to cleave sialic acid from serum glycoproteins
PSA-NCAM [4]
  reduction of molecular weight of the PSA-NCAM triplet: 10-15 kDa
PSA-NCAM [5]
  upper and middle PSA-NCAM bands on Western blot: disappeared
PSA-NCAM [6]
  intensity of the 130 kDa and 60 kDa PSA-NCAM bands: significantly reduced in intensity

## sialyl-lactose
[1]
  muscle atrophy and weakness: reduced or prevented
